# Assay results: patent US20240150356A1, “Pyrimidine amide compounds and use thereof” (ALPHALA CO., LTD., priority 2019, published 2024)
# Read-outs that look alike come from different tables or passages of the source.
# Tested on: Hep3B cells (hepatocellular carcinoma cell line)
# Assay: In vitro MTS cell viability assay (NCI-60 methodology), Hep3B
# Format: cell-based
# Conditions: Homo sapiens, 48 h
# Summary of the method: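 Following NCI-60 method, MTS viability of Hep3B measured 24 h after plating (time zero) and after a further 2-day exposure to five concentrations (2-fold series). LC50 defined where [(Ti−Tz)/Tz]×100 = −50.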
# [1] = Table 6, MTS, 2 days drug incubation, 50% reduction vs time zero, read-out: Hep3B LC50
# [2] = Table 10, MTS, 2 days drug incubation, 50% reduction vs time zero, read-out: Hep3B LC50
# [3] = Table 5, MTS, 2 days drug incubation, 50% reduction vs time zero, read-out: Hep3B LC50
# [4] = Table 1, MTS, 2 days drug incubation, 50% reduction vs time zero, read-out: Hep3B LC50
smiles,measurement,setting,value
"COCCOc1ccc(-c2nc(NC(=O)c3ccc([N+](=O)[O-])s3)c3cnn(-c4cccc(Cl)c4)c3n2)cn1 [Compound 6-43, N-(1-(3-chlorophenyl)-6-(6-(2-methoxyethoxy)pyridin-3-yl)-1H-pyrazolo[3,4-d]pyrimidin-4-yl)-5-nitrothiophene-2-carboxamide]",LC50,[1],0.09 µM
"CC(C)(C)c1ccc(-n2ncc3c(NC(=O)c4ccc([N+](=O)[O-])s4)nc(-c4ccc(F)cc4)nc32)cc1 [Compound 6-81, N-(1-(4-(tert-butyl)phenyl)-6-(4-fluorophenyl)-1H-pyrazolo[3,4-d]pyrimidin-4-yl)-5-nitrothiophene-2-carboxamide]",LC50,[1],0.94 µM
CC(C)(C)[Si](C)(C)OC1CN(c2nc(NC(=O)c3ccc([N+](=O)[O-])s3)c3cnn(-c4ccc(OC(F)(F)F)cc4)c3n2)C1 [Compound 6-84],LC50,read-out: Hep3B LC50 (uM),1.13 µM
"O=C(Nc1nc(-c2ccsc2)nc2c1cnn2C1CCCCC1)c1ccc([N+](=O)[O-])s1 [Compound 10-6, N-(1-cyclohexyl-6-(thiophen-3-yl)-1H-pyrazolo[3,4-d]pyrimidin-4-yl)-5-nitrothiophene-2-carboxamide]",LC50,[2],1.03 µM
"O=C(Nc1nc(-c2ccc(OC(F)(F)F)cc2)nc2c1cnn2C1CCCCC1)c1ccc([N+](=O)[O-])s1 [Compound 10-26, N-(1-cyclohexyl-6-(4-(trifluoromethoxy)phenyl)-1H-pyrazolo[3,4-d]pyrimidin-4-yl)-5-nitrothiophene-2-carboxamide]",LC50,[2],0.68 µM
"O=C(Nc1nc(-c2ccco2)nc2c1cnn2-c1ccccc1)c1ccc([N+](=O)[O-])s1 [Compound 5-17, N-(6-(furan-2-yl)-1-phenyl-1H-pyrazolo[3,4-d]pyrimidin-4-yl)-5-nitrothiophene-2-carboxamide]",LC50,[3],0.4 µM
"COc1ccc(/C=C/c2nc(NC(=O)c3ccc([N+](=O)[O-])s3)c3cnn(C)c3n2)cc1 [Compound 1-12, (E)-N-(6-(4-methoxystyryl)-1-methy-1H-pyrazolo[3,4-d]pyrimidin-4-yl)-5-nitrothiophene-2-carboxamide]",LC50,[4],> 5 µM
"COCCOc1ccc(-c2nc(NC(=O)c3ccc([N+](=O)[O-])s3)c3cnn(-c4ccccc4)c3n2)cn1 [Compound 5-54, N-(6-(6(2-methoxyethoxy)pyridin-3-yl)-1-phenyl-1H-pyrazolo[3,4-d]pyrimidin-4-yl)-5-nitrothiophene-2-carboxamide]",LC50,[3],0.34 µM
"C[C@@H]1C[C@@H](n2ncc3c(NC(=O)c4ccc([N+](=O)[O-])s4)nc(-c4ccc(Cl)nc4)nc32)CC(C)(C)C1 [Compound 8-16, N-(6-(6-chloropyridin-3-yl)-1-((1R,5S)-3,3,5-trimethylcyclohexyl)-1H-pyrazolo[3,4-d]pyrimidin-4-yl)-5-nitrothiophene-2-carboxamide]",LC50,"Table 8, MTS, 2 days drug incubation, 50% reduction vs time zero, read-out: Hep3B LC50",0.59 µM
"COCCOc1ccc(-c2nc(NC(=O)c3ccc([N+](=O)[O-])s3)c3cnn(-c4ccc(Cl)cc4)c3n2)cn1 [Compound 6-51, N-(1-(4-chlorophenyl)-6-(6-(2-methoxyethoxy)pyridin-3-yl)-1H-pyrazolo[3,4-d]pyrimidin-4-yl)-5-nitrothiophene-2-carboxamide]",LC50,[1],0.05 µM
"COCCOc1ccc(-c2nc(NC(=O)c3ccc([N+](=O)[O-])s3)c3cnn(C4CCCCC4)c3n2)cn1 [Compound 10-51, N-(1-cyclohexyl-6-(6-(2-methoxyethoxy)pyridin-3-yl)-1H-pyrazolo[3,4-d]pyrimidin-4-yl)-5-nitrothiophene-2-carboxamide]",LC50,[2],0.96 µM
"COc1ccc(-c2nc(NC(=O)c3ccc([N+](=O)[O-])s3)c3cnn(C4CCCCC4)c3n2)cn1 [Compound 10-21, N-(1-cyclohexyl-6-(6-methoxypyridin-3-yl)-1H-pyrazolo[3,4-d]pyrimidin-4-yl)-5-nitrothiophene-2-carboxamide]",LC50,[2],1.12 µM
"CC(C)(C)n1ncc2c(NC(=O)c3ccc([N+](=O)[O-])s3)nc(-c3ccc(C(F)(F)F)cc3)nc21 [Compound 1-26, N-(1-(tert-butyl)-6-(4-(trifluoromethyl)phenyl)-1H-pyrazolo[3,4,d]pyrimidin-4-yl)-5-nitrothiophene-2-carboxamide]",LC50,[4],0.79 µM
